Patent US4743614A, “Amino acid derivatives and processes for preparation thereof” (Fujisawa Pharmaceutical Co., Ltd., priority 1985, dated 1988)

How the values were obtained:
[1] = test system: colony forming abilities of bone marrow cells (CFU-c); assay: Restorative effect on suppressed colony forming abilities of bone marrow cells in immunodeficient hosts (mitomycin C-treated mice); format: in vivo, BDF1 mice; details: mitomycin C 1 mg/kg for 2 days, day 9, n = 7-9, **P < 0.01
Protocol: Restorative effect on suppressed colony forming abilities of bone marrow cells in immunodeficient hosts: BDF1 mice (female, 8 weeks aged) were obtained from Shizuoka Agricultural Cooperative Association for Laboratory Animal, Hamamatsu, Japan. The mice were intraperitoneally injected with mitomycin C (1 mg/kg) every day for 2 days and FR-900490 was also administered to mice intraperitoneally every day for 5 days. At 9th day after first administration of mitomycin C, mice were sacrificed and the colony forming abilities of bone marrow cells (CFU-c) were measured. The schedule of the above test is shown below. [drawing 6] Femoral marrow was harvested from mice by flushing the bone cavity with α-Minimum Essential Medium (α-MEM) supplemented with penicillin G (100 units/ml), streptomycin (100 μg/ml) and 5% fetal bovine serum (FBS). The bone marrow cells were pelleted by centrifugation (500×g, 10 minutes) and resuspended in enriched α-MEM. Mononuclear cells were counted in a hemocytometer and the cells were diluted to 1 ×10^5 cells/ml. Then, 1 ml of bone marrow cells, 1 ml of FBS, 2 ml of 2.2% methyl cellulose in α-MEM and 1 ml of L-929 cell conditioned medium were added to a sterilized tube and mixed by use of automatic mixer. One ml of mixture was plated in 35 mm plastic petri dish and incubated for 7 days in a fully humidified atmosphere of 5% CO2 in air. Triplicate plates were prepared for each experiment. Colonies composed of 50 or more cells were scored on an inverted microscope.

[2] = Solubility; format: physicochemical
[3] = test system: direct plaque forming cells (PFC-SRBC); assay: Restorative effect on suppressed antibody forming abilities in immunodeficient hosts; format: in vivo, BDF1 mice
Protocol: Restorative Effect on Suppressed Antibody Forming Abilities in Immunodeficient Hosts
BDF1 mice (female, 8 weeks aged) were injected intraperitoneally with Mitomycin C (1 mg/kg) from four days before immunization with 5×10^8 Sheep Red Blood Cells (SRBC), every day for three days. Test samples also were administered to mice intraperitoneally from four days before immunization, every day for five days. At day 9, mice were sacrificed and the number of direct plaque forming cells per spleen (PFC-SRBC/spleen) was measured by using Cunningham modification method.
The schedule of the above test is shown. [drawing 8]

[4] = test system: B-16 melanoma; assay: Inhibitory activity for tumor metastasis; format: in vivo, BDF1 mice; details: 14th day after B-16 melanoma injection, n = 10, **P < 0.01
Protocol: Inhibitory activity for tumor metastasis
B-16 Melanoma cells were grown in a Roswel park memorial Institute (RPMI)-1640 medium supplemented with penicillin G (100 units/ml), streptomycin (100 μg/ml) and 10% FBS to subsconfiluency, and the monolayers were rinsed with an aqueous solution of trypsin. Hanks' balanced salt (HBS) solution (Ca-Mg-free) containing the antibiotics described above was added to the monolayers and the monolayer was dislodged by gentle pipetting, and the cells were washed with HBS solution containing the antibiotics described above by centrifugation. The cells were resuspended in HBS solution containing the antibiotics described above and kept at cold temperature. BDF1 mice (female, 8 weeks aged) were injected intravenously with 2×10^5 cells of B-16 melanoma in 0.2 ml of HBS solution containing the antibiotics described above. FR-900490 was intraperitoneally administered once a day at one day and two days before and at one day and four days after the injection of B-16 melanoma. At 14th day after injection of B-16 melanoma, the mice were killed, and the lungs were removed, rinsed in distilled water containing heparin and the number of tumor foci was determined by counting the surface colonies under a dissecting microscope.
The schedule of the above test is shown. [drawing 7]

Solubility ([2]; Ethyl acetate): Insoluble
Solubility ([2]; Methanol): Sparingly soluble
Solubility ([2]; Water): Soluble
Solubility ([2]; acetone): Insoluble
Solubility ([2]; chloroform): Insoluble
Solubility ([2]; ethanol): Sparingly soluble
Compound: C[C@@H](N[C@@H](Cc1c[nH]cn1)C(=O)O)[C@H](NC(=O)[C@@H](N)CC(N)=O)C(=O)O [FR-900490, (2S,3R)-2-[[(2S)-2-amino-3-carbamoylpropionyl]amino]-3-[[(1S)-1-carboxy-2-(4-imidazolyl)ethyl]amino]butyric acid]
CFU-c (mean ± SE) ([1]; 1 mg/kg i.p. every day for 5 days): 59.3 ± 2.86
CFU-c (mean ± SE) ([1]; 10 mg/kg i.p. every day for 5 days): 70.4 ± 6.9
CFU-c (mean ± SE) ([1]; 100 mg/kg i.p. every day for 5 days): 57.2 ± 2.51
PFC-SRBC/spleen (average number of 5 mice/group) ([3]; 3 mg/kg i.p., mitomycin C-treated): 14.96 × 10^4 PFC-SRBC/spleen
PFC-SRBC/spleen (average number of 5 mice/group) ([3]; 10 mg/kg i.p., mitomycin C-treated): 17.49 × 10^4 PFC-SRBC/spleen
PFC-SRBC/spleen (average number of 5 mice/group) ([3]; 30 mg/kg i.p., mitomycin C-treated): 16.30 × 10^4 PFC-SRBC/spleen
PFC-SRBC/spleen (average number of 5 mice/group) ([3]; 100 mg/kg i.p., animals not administered mitomycin C): 16.83 × 10^4 PFC-SRBC/spleen
PFC-SRBC/spleen (average number of 5 mice/group) ([3]; 100 mg/kg i.p., mitomycin C-treated): 21.12 × 10^4 PFC-SRBC/spleen
No. of colonies on the lung mean ± SE ([4]; 1 mg/kg i.p.): 39.7 ± 6.4
No. of colonies on the lung mean ± SE ([4]; 10 mg/kg i.p.): 23.4 ± 3.3
No. of colonies on the lung mean ± SE ([4]; 100 mg/kg i.p.): 77.9 ± 27.4
